In patent US12258354B2, “AhR modulators” (IDEAYA BIOSCIENCES, INC., priority 2018, dated 2025):

Biological target: T1, hAhR (Homo sapiens, UniProt P35869)
T1 construct: Stably integrated DRE-luciferase cell lines were generated by transducing the both cell lines with Cignal XRE luciferase reporter; endogenous in cells; host or cells: HEPG2 DRE-Luc cells (only the XRE luciferase reporter was transduced)
T1 sequence (P35869 11-848): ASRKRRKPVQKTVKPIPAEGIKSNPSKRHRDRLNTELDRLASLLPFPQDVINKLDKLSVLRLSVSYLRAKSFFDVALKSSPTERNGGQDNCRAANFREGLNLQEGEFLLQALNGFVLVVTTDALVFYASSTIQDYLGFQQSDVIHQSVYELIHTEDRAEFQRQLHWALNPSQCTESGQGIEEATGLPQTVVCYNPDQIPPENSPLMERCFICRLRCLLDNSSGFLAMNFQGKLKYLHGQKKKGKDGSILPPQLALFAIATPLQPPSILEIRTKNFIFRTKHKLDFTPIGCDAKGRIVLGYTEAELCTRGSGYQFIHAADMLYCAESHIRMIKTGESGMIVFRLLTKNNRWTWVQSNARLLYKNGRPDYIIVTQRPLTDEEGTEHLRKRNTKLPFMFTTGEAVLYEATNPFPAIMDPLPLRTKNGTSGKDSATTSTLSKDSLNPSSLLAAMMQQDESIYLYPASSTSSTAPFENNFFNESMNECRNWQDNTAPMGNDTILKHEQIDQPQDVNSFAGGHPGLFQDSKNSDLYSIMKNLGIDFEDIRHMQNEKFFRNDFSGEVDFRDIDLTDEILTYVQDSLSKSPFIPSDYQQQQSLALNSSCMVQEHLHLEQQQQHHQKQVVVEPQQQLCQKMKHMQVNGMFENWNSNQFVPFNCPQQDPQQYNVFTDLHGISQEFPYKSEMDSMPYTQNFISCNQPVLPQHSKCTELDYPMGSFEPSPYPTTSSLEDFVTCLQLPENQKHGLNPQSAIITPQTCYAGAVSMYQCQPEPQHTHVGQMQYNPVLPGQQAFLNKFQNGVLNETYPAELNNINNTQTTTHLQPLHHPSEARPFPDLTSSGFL
Assay: DRE-luciferase transcriptional reporter assay in HEPG2 DRE-Luc cells, TCDD-induced (antagonist mode)
Format: cell-based
Conditions: relative IC50, 3 nM TCDD, 24-hour incubation, firefly luciferase readout
Outline: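 Stable DRE(XRE)-luciferase HEPG2 clone seeded in OptiMEM with 0.5% heat-inactivated FBS, then given a semi-log compound dilution plus TCDD at 3 nM final. After 24 h, cells were lysed and firefly luminescence read. Response was normalised between TCDD and vehicle, and relative IC50 was taken as half-reduction between the fitted curve plateaus.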

Row | Structure (SMILES) | IC50
1 | Cc1cc(-c2ncc3nc(C(F)(F)F)ccc3n2)ccc1N1CCOc2cnn(C)c2C1 [compound 049, 1-methyl-7-(2-methyl-4-(6-(trifluoromethyl)pyrido[3,2-d]pyrimidin-2-yl)phenyl)-5,6,7,8-tetrahydro-1H-pyrazolo[3,4-f][1,4]oxazepine] | < 200 nM
2 | Cn1ncc2c1C(=O)N(c1ccc(-c3ncc4nc(C(F)(F)F)ccc4n3)cc1)CCO2 [compound 050, 1-methyl-7-(4-(6-(trifluoromethyl)pyrido[3,2-d]pyrimidin-2-yl)phenyl)-6,7-dihydro-1H-pyrazolo[3,4-f][1,4]oxazepin-8 (5H)-one] | < 200 nM
3 | Cc1cc(-c2ncc3nc(F)ccc3n2)ccc1N1CCOc2cnn(C)c2C1=O [compound 051, 7-(4-(6-fluoropyrido[3,2-d]pyrimidin-2-yl)-2-methylphenyl)-1-methyl-6,7-dihydro-1H-pyrazolo[3,4-f][1,4]oxazepin-8 (5H)-one] | 200 to 500 nM
4 | Cc1cc(-c2ccc3nc(F)ccc3n2)ccc1N1CCOc2cnn(C)c2C1=O [compound 052, 7-(4-(6-fluoro-1,5-naphthyridin-2-yl)-2-methylphenyl)-1-methyl-6,7-dihydro-1H-pyrazolo[3,4-f][1,4]oxazepin-8 (5H)-one] | 500 to 1000 nM
5 | Cc1cc(-c2ncc3cc(F)ccc3n2)ccc1N1CCOc2cnn(C)c2C1=O [compound 053, 7-(4-(6-fluoroquinazolin-2-yl)-2-methylphenyl)-1-methyl-6,7-dihydro-1H-pyrazolo[3,4-f][1,4]oxazepin-8 (5H)-one] | 200 to 500 nM
6 | Cc1cc(-c2ncc3cc(C(F)(F)F)ccc3n2)ccc1N1CCOc2cccnc2C1=O [compound 054, 4-(2-methyl-4-(6-(trifluoromethyl)quinazolin-2-yl)phenyl)-3,4-dihydropyrido[2,3-f][1,4]oxazepin-5 (2H)-one] | 200 to 500 nM
7 | Cc1cc(-c2ncc3cc(C(F)(F)F)ccc3n2)ccc1N1CCOc2cncnc2C1=O [compound 055, 8-(2-methyl-4-(6-(trifluoromethyl)quinazolin-2-yl)phenyl)-7,8-dihydropyrimido[4,5-f][1,4]oxazepin-9 (6H)-one] | 200 to 500 nM
8 | Cc1cc(-c2ncc3cc(C(F)(F)F)ccc3n2)ccc1N1CCn2nc(CN3CCOCC3)c(C)c2C1=O [compound 061, 3-methyl-5-(2-methyl-4-(6-(trifluoromethyl)quinazolin-2-yl)phenyl)-2-(morpholinomethyl)-6,7-dihydropyrazolo[1,5-a]pyrazin-4 (5H)-one] | < 200 nM
9 | Cc1cc(-c2ncc3cc(C(F)(F)F)ccc3n2)ccc1N1CCn2nc(C(=O)N3CCOCC3)c(C)c2C1 [compound 062, (3-methyl-5-(2-methyl-4-(6-(trifluoromethyl)quinazolin-2-yl)phenyl)-4,5,6,7-tetrahydropyrazolo[1,5-a]pyrazin-2-yl)(morpholino)methanone] | < 200 nM
10 | Cc1cc(-c2ncc3cc(C(F)(F)F)ccc3n2)ccc1N1CCn2ncc(C#N)c2C1=O [compound 067, 5-(2-methyl-4-(6-(trifluoromethyl)quinazolin-2-yl)phenyl)-4-oxo-4,5,6,7-tetrahydropyrazolo[1,5-a]pyrazine-3-carbonitrile] | < 200 nM
11 | Cc1cc(-c2ncc3cc(C(F)(F)F)ccc3n2)ccc1N1CCn2ncc(N3CCOCC3)c2C1=O [compound 068, 5-(2-methyl-4-(6-(trifluoromethyl)quinazolin-2-yl)phenyl)-3-morpholino-6,7-dihydropyrazolo[1,5-a]pyrazin-4 (5H)-one] | < 200 nM
12 | Cc1cc(-c2ncc3cc(C(F)(F)F)ccc3n2)ccc1N1CCn2ncc(CN3CCOCC3)c2C1=O [compound 070, 5-(2-methyl-4-(6-(trifluoromethyl)quinazolin-2-yl)phenyl)-3-(morpholino-methyl)-6,7-dihydropyrazolo[1,5-a]pyrazin-4 (5H)-one] | < 200 nM
13 | Cc1cc(-c2ncc3cc(C(F)(F)F)ccc3n2)ccc1N1CCOc2cnn(CCN3CCOCC3)c2C1=O [compound 071, 7-(2-methyl-4-(6-(trifluoromethyl)quinazolin-2-yl)phenyl)-1-(2-morpholinoethyl)-6,7-dihydro-1H-pyrazolo[3,4-f][1,4]oxazepin-8 (5H)-one] | 500 to 1000 nM
14 | Cc1cc(-c2ncc3cc(C(F)(F)F)ccc3n2)ccc1N1CCOc2cnn(CCN3CCC(O)CC3)c2C1=O [compound 072, 1-(2-(4-hydroxypiperidin-1-yl)ethyl)-7-(2-methyl-4-(6-(trifluoromethyl)-quinazolin-2-yl)phenyl)-6,7-dihydro-1H-pyrazolo[3,4-f][1,4]oxazepin-8 (5H)-one] | 1000 to 10000 nM
15 | Cc1cc(-c2ncc3cc(C(F)(F)F)ccc3n2)ccc1N1CCOc2cnn(CCN3CCC(F)(F)CC3)c2C1=O [compound 073, 1-(2-(4,4-difluoropiperidin-1-yl)ethyl)-7-(2-methyl-4-(6-(trifluoromethyl)-quinazolin-2-yl)phenyl)-6,7-dihydro-1H-pyrazolo[3,4-f][1,4]oxazepin-8 (5H)-one] | 1000 to 10000 nM
16 | Cc1cc(-c2ncc3cc(C(F)(F)F)ccc3n2)ccc1N1CCOc2cnn(Cc3nnn[nH]3)c2C1=O [compound 075, 7-[2-methyl-4-[6-(trifluoromethyl)quinazolin-2-yl]phenyl]-1-[(1H-1,2,3,4-tetrazol-5-yl)methyl]-1H,5H,6H,7H,8H-pyrazolo[3,4-f][1,4]oxazepin-8-one] | 1000 to 10000 nM
17 | Cc1cc(-c2ncc3cc(C(F)(F)F)ccc3n2)ccc1N1CCOc2cnn(CC(=O)O)c2C1=O [compound 076, 2-(7-(2-methyl-4-(6-(trifluoromethyl)quinazolin-2-yl)phenyl)-8-oxo-5,6,7,8-tetrahydro-1H-pyrazolo[3,4-f][1,4]oxazepin-1-yl)acetic acid] | 1000 to 10000 nM

Results, then the molecule that gave them:

Row | IC50 | Structure (SMILES)
18 | < 200 nM | CCOC(=O)c1nn2c(c1C)C(=O)N(c1ccc(-c3ncc4cc(C(F)(F)F)ccc4n3)cc1C)CC2 [compound 056, ethyl 3-methyl-5-(2-methyl-4-(6-(trifluoromethyl)quinazolin-2-yl)phenyl)-4-oxo-4,5,6,7-tetrahydropyrazolo[1,5-a]pyrazine-2-carboxylate]
19 | < 200 nM | Cc1cc(-c2ncc3cc(C(F)(F)F)ccc3n2)ccc1N1CCn2nc(CO)c(C)c2C1=O [compound 057, 2-(hydroxymethyl)-3-methyl-5-(2-methyl-4-(6-(trifluoromethyl)-quinazolin-2-yl)phenyl)-6,7-dihydropyrazolo[1,5-a]pyrazin-4 (5H)-one]
20 | < 200 nM | Cc1cc(-c2ncc3cc(C(F)(F)F)ccc3n2)ccc1N1CCn2nc(C(C)O)c(C)c2C1=O (centres unmarked) [compound 058, 2-(1-hydroxyethyl)-3-methyl-5-(2-methyl-4-(6-(trifluoromethyl)-quinazolin-2-yl)phenyl)-6,7-dihydropyrazolo[1,5-a]pyrazin-4 (5H)-one]
21 | < 200 nM | Cc1cc(-c2ncc3cc(C(F)(F)F)ccc3n2)ccc1N1CCn2nc(C(C)(C)O)c(C)c2C1=O [compound 059, 2-(2-hydroxypropan-2-yl)-3-methyl-5-(2-methyl-4-(6-(trifluoromethyl)-quinazolin-2-yl)phenyl)-6,7-dihydropyrazolo[1,5-a]pyrazin-4 (5H)-one]
22 | 200 to 500 nM | Cc1cc(-c2ncc3cc(C(F)(F)F)ccc3n2)ccc1N1CCn2nc(C(=O)O)c(C)c2C1=O [compound 060, 3-methyl-5-(2-methyl-4-(6-(trifluoromethyl)quinazolin-2-yl)phenyl)-4-oxo-4,5,6,7-tetrahydropyrazolo[1,5-a]pyrazine-2-carboxylic acid]
23 | < 200 nM | Cc1cc(-c2ncc3cc(C(F)(F)F)ccc3n2)ccc1N1CCn2nc(CN(C)C)c(C)c2C1=O [compound 063, 2-((dimethylamino)methyl)-3-methyl-5-(2-methyl-4-(6-(trifluoromethyl)-quinazolin-2-yl)phenyl)-6,7-dihydropyrazolo[1,5-a]pyrazin-4 (5H)-one]
24 | < 200 nM | Cc1cc(-c2ncc3cc(C(F)(F)F)ccc3n2)ccc1N1CCn2ncc(Br)c2C1=O [compound 064, 3-bromo-5-(2-methyl-4-(6-(trifluoromethyl)quinazolin-2-yl)phenyl)-6,7-dihydropyrazolo[1,5-a]pyrazin-4 (5H)-one]
25 | 500 to 1000 nM | Cc1cc(-c2ncc3cc(C(F)(F)F)ccc3n2)ccc1N1CCn2ncc(C(=O)O)c2C1=O [compound 065, 5-(2-methyl-4-(6-(trifluoromethyl)quinazolin-2-yl)phenyl)-4-oxo-4,5,6,7-tetrahydropyrazolo[1,5-a]pyrazine-3-carboxylic acid]
26 | < 200 nM | Cc1cc(-c2ncc3cc(C(F)(F)F)ccc3n2)ccc1N1CCn2ncc(C(N)=O)c2C1=O [compound 066, 5-(2-methyl-4-(6-(trifluoromethyl)quinazolin-2-yl)phenyl)-4-oxo-4,5,6,7-tetrahydropyrazolo[1,5-a]pyrazine-3-carboxamide]
